We go through four molecules from the supplement of paper PMC10307832.

Common to all, as to assay: relative viability (nuclei count vs DMSO), 5 days (fraction); higher = more cells survive
The subject of one assay is NCI-H2342. Put shortly: (§1)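 Values are medians from duplicate plates. Each reflects relative viability, defined as the nuclei count of treated wells over that of vehicle wells. Lung cancer cell lines in 1536-well plates were pin-tool dosed one day after seeding with one drug alone or with a fixed anchor-drug dose plus five library-drug doses (not always all listed) in √10 steps, then fixed, stained and imaged at 4× after 5 days.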

A further assay concerns NCI-H1648. Put shortly:
as §1

The next assay has as its system NCI-H522. Put shortly:
as §1

The next assay deals with IA-LM. Put shortly: as §1
The test system of another assay is SW 900. A digest of the protocol:
as §1

A further assay concerns NCI-H1703. A digest of the protocol:
as §1

The subject of the next assay is A549. Put shortly:
as §1

Take `O=C(O)CCCCC(CCSCc1ccccc1)SCc1ccccc1` (stereo not drawn) [CPI-613] + O=C(CCCCCCC(=O)Nc1ccccc1)NO [Vorinostat] (partner 1 µM): the relative viability in the assay with NCI-H2342 (first compound 5 µM) was 0.648; in the assay with NCI-H2342 (first compound 15.81 µM), 0.629; in the assay with NCI-H2342 (first compound 50 µM), 0.721; in the assay on NCI-H2342 (first compound 158.11 µM), 0.763; in the assay with NCI-H2342 (first compound 500 µM), 0.939; in the assay with NCI-H1648 (first compound 5 µM), 0.527. In addition, the relative viability with NCI-H1648 (first compound 15.81 µM) amounted to 0.336; in the assay with NCI-H1648 (first compound 50 µM) it was 0.422; with NCI-H1648 (first compound 158.11 µM) it was 0.142; in the assay with NCI-H1648 (first compound 500 µM) it was 0.0754; in the assay on NCI-H522 (first compound 5 µM), 0.841; in the assay with NCI-H522 (first compound 15.81 µM), 0.812. For the same molecule, the relative viability turned out to be 0.833 in the assay with NCI-H522 (first compound 50 µM); 0.741 with NCI-H522 (first compound 158.11 µM); 0.244 with NCI-H522 (first compound 500 µM); 0.876 with IA-LM (first compound 5 µM); 0.869 in the assay with IA-LM (first compound 15.81 µM); 0.685 in the assay on IA-LM (first compound 50 µM). Also, the relative viability in the assay with IA-LM (first compound 500 µM) turned out to be 0.937; with SW 900 (first compound 5 µM), 0.512; with SW 900 (first compound 50 µM), 0.555; in the assay on SW 900 (first compound 158.11 µM), 0.316; in the assay with SW 900 (first compound 500 µM), 0.0227.
For the molecule `O=C(O)CCCCC(CCSCc1ccccc1)SCc1ccccc1` (stereo not drawn) [CPI-613] + NC(=O)Nc1cc(-c2cccc(F)c2)sc1C(=O)N[C@H]1CCCNC1 [AZD7762] (partner 0.2 µM), the relative viability with NCI-H1703 (first compound 5 µM) turned out to be 0.133; with NCI-H1703 (first compound 15.81 µM), 0.12; in the assay on NCI-H1703 (first compound 50 µM) it was 0.134; in the assay with NCI-H1703 (first compound 158.11 µM) it was 0.118; in the assay on NCI-H1703 (first compound 500 µM), 0.12; in the assay with NCI-H2342 (first compound 5 µM) it was 0.489. Also, the relative viability in the assay with NCI-H2342 (first compound 15.81 µM) stood at 0.454; with NCI-H2342 (first compound 50 µM) it was 0.437; in the assay with NCI-H2342 (first compound 158.11 µM), 0.522; with NCI-H2342 (first compound 500 µM), 0.576; in the assay with NCI-H1648 (first compound 5 µM), 0.622; with NCI-H1648 (first compound 15.81 µM), 0.701. Further, the relative viability with NCI-H1648 (first compound 50 µM) came to 0.645; in the assay on NCI-H1648 (first compound 158.11 µM), 0.626; with NCI-H1648 (first compound 500 µM), 0.665; with NCI-H522 (first compound 5 µM), 0.899; with NCI-H522 (first compound 15.81 µM), 0.887; in the assay with NCI-H522 (first compound 50 µM), 0.953. Moreover, the relative viability with NCI-H522 (first compound 158.11 µM) worked out at 0.631; in the assay on NCI-H522 (first compound 500 µM), 0.563; with SW 900 (first compound 5 µM), 0.685; with SW 900 (first compound 50 µM), 0.692; with SW 900 (first compound 158.11 µM), 0.273; in the assay with SW 900 (first compound 500 µM), 0.0039.
For `O=C(O)CCCCC(CCSCc1ccccc1)SCc1ccccc1` (stereo not drawn) [CPI-613] + Nc1ncn([C@H]2C[C@H](O)[C@@H](CO)O2)c(=O)n1 [Decitabine] (partner 2 µM), the relative viability with NCI-H2342 (first compound 5 µM) was 0.669; in the assay on NCI-H2342 (first compound 15.81 µM), 0.656; in the assay with NCI-H2342 (first compound 50 µM) it was 0.838; in the assay with NCI-H2342 (first compound 158.11 µM), 0.78; in the assay on NCI-H2342 (first compound 500 µM), 0.779; in the assay on A549 (first compound 5 µM) it was 0.284. Further, the relative viability in the assay with A549 (first compound 15.81 µM) was 0.195; in the assay with A549 (first compound 50 µM), 0.269; with A549 (first compound 158.11 µM), 0.259; in the assay with A549 (first compound 500 µM) it was 0.161; with NCI-H1648 (first compound 5 µM), 0.568; with NCI-H1648 (first compound 15.81 µM) it was 0.409. Also, the relative viability is 0.57 with NCI-H1648 (first compound 50 µM); 0.4 in the assay with NCI-H1648 (first compound 158.11 µM); 0.172 in the assay with NCI-H1648 (first compound 500 µM); 0.678 in the assay on NCI-H522 (first compound 5 µM); 0.585 in the assay with NCI-H522 (first compound 15.81 µM); 0.697 in the assay with NCI-H522 (first compound 50 µM). The relative viability with NCI-H522 (first compound 158.11 µM) was determined as 0.627; with NCI-H522 (first compound 500 µM), 0.3; in the assay with SW 900 (first compound 5 µM), 0.458; with SW 900 (first compound 50 µM) it was 0.429; with SW 900 (first compound 158.11 µM) it was 0.332; in the assay with SW 900 (first compound 500 µM) it was 0.0668.
On to `O=c1[nH]c2ccccc2n1C1CCN(CCCC(c2ccc(F)cc2)c2ccc(F)cc2)CC1` [Pimozide] + O=C(CCCCCCC(=O)Nc1ccccc1)NO [Vorinostat] (partner 1 µM), for which the relative viability in the assay with NCI-H2342 (first compound 0.08 µM) was found to be 0.778; in the assay on NCI-H2342 (first compound 0.253 µM), 0.77; in the assay with NCI-H2342 (first compound 0.8 µM), 0.658; in the assay with NCI-H2342 (first compound 2.53 µM) it was 0.75; with NCI-H2342 (first compound 8 µM), 0.696; in the assay with NCI-H1648 (first compound 0.08 µM), 0.315. In addition, the relative viability with NCI-H1648 (first compound 0.8 µM) was 0.527; with NCI-H1648 (first compound 2.53 µM) it was 0.228; with NCI-H1648 (first compound 8 µM), 0.347; in the assay with NCI-H522 (first compound 0.08 µM) it was 0.848; in the assay on NCI-H522 (first compound 0.253 µM) it was 0.908; with NCI-H522 (first compound 0.8 µM), 0.673. Also, the relative viability stood at 0.817 in the assay with NCI-H522 (first compound 2.53 µM); 0.81 in the assay on NCI-H522 (first compound 8 µM); 0.931 in the assay on IA-LM (first compound 0.08 µM); 0.923 in the assay with IA-LM (first compound 0.253 µM); 0.913 in the assay with IA-LM (first compound 2.53 µM); 0.99 with IA-LM (first compound 8 µM). Moreover, the relative viability in the assay on SW 900 (first compound 0.08 µM) is 0.655; with SW 900 (first compound 0.253 µM), 0.45; in the assay on SW 900 (first compound 2.53 µM), 0.509; with SW 900 (first compound 8 µM), 0.3.
